Reference: paper PMC9518609, “Design and synthesis of new trimethoxylphenyl-linked combretastatin analogues loaded on diamond nanoparticles as a panel for ameliorated solubility and antiproliferative activity” (Journal of Enzyme Inhibition and Medicinal Chemistry, 2022)

Tested on: p53
Test: ELISA measurement of p53 level in MDA-MB-231 cells
Assay type: cell-based
Settings: MDA-MB-231, at IC50, 24 h
Text: p53, Bax, and Bcl-2 are key regulators of the apoptosis process to keep the balance between viable and dead normal cells. Deregulation of these proteins is a common feature responsible for uncontrolled cancer cell growth. In this test, the protein expression of apoptotic regulators was examined using ELISA analysis. […]
p53, Bax, and Bcl2 enzyme activities in MDA-MB-231 cells were investigated in the presence of compounds 6 and 12 at their IC50 concentration (µM). The levels of the tumour suppressor gene p53, apoptotic markers Bax as well as the anti-apoptotic marker Bcl-2 were assessed using the p53 ELISA kit, Human Bax ELISA kit, and Bcl-2 Elisa kit. The procedure of the used kits was done according to the manufacturer's instructions and was conducted as reported earlier. […]
4.3.4.2. Effect on p53, Bax and Bcl-2 p53, Bax and Bcl2 enzyme activities in MDA-MB-231 cells were detected in the presence of compounds 6 and 12 at their IC50 concentration (µM). The levels of the tumor suppressor gene p53, apoptotic markers Bax as well as the anti-apoptotic marker Bcl-2 were assessed using p53 ELISA kit, Human Bax ELISA kit and Bcl-2 Elisa kit. The procedure of the used kits was done according to the manufacturer's instructions. […] The samples were measured at 450 nm in ROBONEK P2000 ELISA reader. […]

For “ethyl 2-(2-(6-oxo-5-(3,4,5-trimethoxybenzylidene)-3–(3,4,5-trimethoxyphenyl)-5,6-dihydro-1,2,4-triazin-2(1H)-yl)thiazol-4-yl)acetate [Compound 12]”, which “p53 level increase, fold change compared with no treatment control” value is on record?
The value was 5.20 fold.

Which “p53 level increase, fold change compared with no treatment control” value does the source give for `COc1cc(C=C2N=C(c3cc(OC)c(OC)c(OC)c3)N(c3ccccc3)NC2=O)cc(OC)c1OC` [Compound 6, 2-phenyl-5-(3,4,5-trimethoxybenzylidene)-3-(3,4,5-trimethoxyphenyl)-1,2-dihydro-1,2,4-triazin-6(5H)-one] here?
Its value is 11.96 fold.
